Reference: article PMC10428205, “Cytotoxicity of Ruthenium(II) Arene Complexes Containing Functionalized Ferrocenyl β-Diketonate Ligands” (Organometallics, 2023)
pIC50: −log10 of the molar value.

What was measured:
[1] = test system: MIA PaCa-2; assay: Comet assay of cellular DNA damage; format: cell-based, human; conditions: MIA PaCa-2, 48 h incubation, varying concentration
Method: Complexes 2, 4, and 7 were chosen due to their range in cytotoxicity, where complex 2 is moderately active and complexes 4 and 7 have the highest activities. Their ability to induce single-strand breakage (SSB) of DNA with varying concentrations of compound was studied after incubation with MIA PaCa-2 cells for 48 h. After harvesting the cells, quantification of the levels of SSB of DNA were assessed by using the alkaline comet assay.
Samples were then taken up in Optima high purity nitric acid, diluted to 10 mL with 1mL rhodium internal standard and 9 mL 18.2 Ultrapure water. The elemental contents of the samples were determined using ICP-MS-QQQ Thermo TQ spectrometer. Measurement of iron mass 56 and ruthenium isotope mass 100 was conducted by comparing solutions of known concentration and intensities. A series of standard calibration curves allows the concentration of each element to be determined. […]
The media -free wells were then trypsinized (1 mL) for 3 -5 minutes and then neutralized with high glucose DMEM (1 mL), these were all added to the centrifuge t ube and centrifuged at 1500 rpm for 3 minutes. […] Staining solution (150 mL) was added to each slide and the Comets analysed using Comet assay III software. A minimum of 50 different comets were scored and the computer outputs an average on head and tail intensities and tail moments. […]

[2] = test system: MIA PaCa-2; assay: Chemosensitivity under hypoxic conditions (0.1% O2, 96 h MTT); format: cell-based, human
Method: LogP = Log ( [C]final ) Eqn1
96 h Chemosensitivity Studies
In vitro chemosensitivity tests were performed at both the University of Huddersfield and the Institute of Cancer Therapeutics, Bradford, in a sterile Class II Biological Safety Cabinet fitted with a HEPA filtered laminar airflow.
Cellular assays were conducted against human pancreatic carcinoma (MIA PaCa-2), human colorectal carcinoma p53-wildtype (HCT116 p53+/+), and human non-cancerous epithelial retinal cells (ARPE-19). The ARPE-19 cells were obtained from the American Type Culture Collection and provided by the University of Huddersfield. All cell lines were routinely maintained as monolayer cultures in appropriate complete medium and maintained in either T-25 or T-75 flasks at 37 °C and 5% CO2. MIA PaCa-2 and ARPE-19 cells were cultured in high glucose DMEM-F12 medium containing 10% foetal calf serum, and HCT116 p53+/+ was cultured in RPMI 1640 supplemented with 10% foetal calf serum. All medium was supplemented with sodium pyruvate (1 mM) and L-glutamine (2 mM), and prior to chemosensitivity studies, cell monolayers were passaged using Trypsin-EDTA and diluted to a concentration of 1 x 10^4 cells/mL. All assays were conducted using 96-well plates, in which […] of the 1 x 10^4 cells/mL cell suspension was added to each well and incubated for 24 h at 37 °C and 5% CO2. […] After mixing well, the absorbance of each well was measured at 540 nm using a ThermoFisher Multiskan FC spectrophotometer microplate reader. Using the blank and 100% cell controls, the % cell viability was determined [(abs. of compound containing wells – abs. media wells)/(abs. 100% cell suspension well control)] and from this the % cell death (100%- % cell viability) was calculated. On a logarithmic scale, the percentage cell death was plotted against the concentration of compound, and from this the half maximal inhibitory concentration (IC50) value was determined. […]

[NH2][Pt]([NH2])([Cl])[Cl] [CDDP, cisplatin, reference compound]
single-strand breakage (SSB) of DNA [1]: dose-dependent SSB similar to that of complex 4 | pIC50 ([2]; MIA PaCa-2, 0.1% O2, 96 h MTT): < 4.30 | fold loss of activity from normoxic to hypoxic conditions ([2]; MIA PaCa-2, 21% vs 0.1% O2): > 14 fold
